Where “and” joins values, the source holds several entries; their conditions need not be identical. Identical values can stand only once. Like-named read-outs stand apart in the source and are kept apart here.
Key:
[1] = Density of the aqueous solutions calculated from the weight of 2 mL in a tube; type: physicochemical
[2] = T1 and T2 relaxivity measurement by spin echo MRI at varying concentrations; type: physicochemical
[3] = as in the Examples
[4] = at 20 to 25° C., cited from earlier work
[5] = aqueous solution that exhibited maximum MRI contrast
[6] = aqueous solution, spin echo, 22° C.

Row | SMILES | Density [1] [g/mL] | density of solution [1] | r1 (T1 relaxivity) [2] | Density [1, 5] [g/mL] | density of solution ([1]; no matter what concentration the solution may have) | r1 (T1 relaxivity) [2, 6] [mM⁻¹ s⁻¹] | r1 (T1 relaxivity) ([2]; aqueous solution, spin echo, 22° C., listed as SPT) [mM⁻¹ s⁻¹] | water solubility [3] [mg/mL] | maximum density of aqueous solution ([4]; listed as sodium polytungstate (SPT)) | maximum density of aqueous solution [4] [g/mL]
1 | O=S(=O)([O-])[O-].[Cu+2] [Cu (CuSO4), Copper sulfate] | 1.0 | about 1 g/mL | 0.63 and 0.63 mM−1 · sec^−1 | – | – | – | – | – | – | –
2 | CNC[C@H](O)[C@@H](O)[C@H](O)[C@H](O)CO.CNC[C@H](O)[C@@H](O)[C@H](O)[C@H](O)CO.O=C([O-])CN(CCN(CC(=O)[O-])CC(=O)O)CCN(CC(=O)[O-])CC(=O)O.[Gd+3] [Gd (Gd-DTPA), meglumine gadopentetate] | – | – | – | 1.0 | about 1 g/mL | 4.2 | – | – | – | –
3 | O.[Na+].[Na+].[Na+].[Na+].[Na+].[Na+].[O]=[W](=[O])([O-])[O-].[O]=[W](=[O])([O-])[O-].[O]=[W](=[O])([O-])[O-].[O]=[W](=[O])=[O].[O]=[W](=[O])=[O].[O]=[W](=[O])=[O].[O]=[W](=[O])=[O].[O]=[W](=[O])=[O].[O]=[W](=[O])=[O].[O]=[W](=[O])=[O].[O]=[W](=[O])=[O].[O]=[W](=[O])=[O] [W (SPT), Sodium polytungstate] | – | – | – | 3.0 | – | 0.00036 | 0.00036 | > 1000 | at most 3.08 g/mL | 3.08

Reference: patent US20150173847A1, “IMAGING MARKER AND UTILIZATION THEREOF” (priority 2012, published 2015)
